Measured values from patent US20260234165A1, “MACROCYCLIC COMPOUNDS, PREPARATION METHOD THEREFOR, AND USE THEREOF” (GENFLEET THERAPEUTICS (SHANGHAI) INC., priority 2004, published 2026).
Where two headings read alike, the source gives them in different places.

Tests used:
Assay type in all cases: cell-based, human
NCI-H441 cells = assay: 3D cell proliferation assay (CellTiter Glo-3D), NCI-H441; settings: medium with 2% FBS, read-out: H441 AP IC50
Method in brief: (§1)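 Luminescence read-out (CellTiter-Glo 3D) after 5-day compound exposure at 37 °C, 5% CO2. Cells: NCI-H441 and AsPC-1, 800/well, RPMI-1640 + 2% FBS, 0.1% DMSO final. IC50 by four-parameter fit of % inhibition against log concentration.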

[1] = test system: p-ERK in AsPC-1 cells (KRAS G12D mutation); assay: Cell p-ERK assay (HTRF) in AsPC-1 cells; settings: AsPC-1 cells, 3 h compound incubation, HTRF p-ERK T202/Y204, read-out: AsPC-1 p-ERK IC50
Method in brief: (§2)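 Seed 10000 AsPC-1 or 20000 NCI-H441 cells/well, overnight 37 °C/5% CO2. Cpd 3.16-fold series, 0.1% DMSO final, 3 h. Lyse 30 min, HTRF p-ERK (T202/Y204) Ab 4 h. IC50: 4-parameter fit of IR% normalised to DMSO and blank.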

[2] = test system: p-ERK in NCI-H441 cells (KRAS G12V mutation); assay: Cell p-ERK assay (HTRF) in NCI-H441 cells; settings: NCI-H441 cells, 3 h compound incubation, HTRF p-ERK T202/Y204, read-out: H441 p-ERK IC50
Method in brief: as §2

[3] = test system: AsPC-1 cells (KRAS G12D mutation); assay: 3D cell proliferation assay (CellTiter Glo-3D), AsPC-1; settings: medium with 2% FBS, read-out: AsPC-1 AP IC50
Method in brief: as §1

[4] = Homo sapiens, NCI-H441, 3D cell proliferation (CellTiter Glo-3D)
[5] = Homo sapiens, ASPC1, 3D cell proliferation (CellTiter Glo-3D)
[6] = 3D cell proliferation (CellTiter Glo-3D)

## CCn1c(-c2cc(C#CCN3CCCOCC3)cnc2[C@H](C)OC)c2c3cc(ccc31)-c1csc(n1)C[C@H](NC(=O)C[C@@H]1CC1(F)F)C(=O)N1CCC[C@H](N1)C(=O)OCC(C)(C)C2 (atropisomer, axis not shown; (Ra)) [Compound Z932-1, N-((6^3S,4S,Z)—(Ra)-1′-(5-(3-(1,4-oxazepan-4-yl)prop-1-yn-1-yl)-2-((S)-1-methoxyethyl)pyridin-3-yl)-1^1-ethyl-10,10-dimethyl-5,7-dioxo-6^1,6^2,6^3,6^4,6^5,6^6-hexahydro-1^1H-8-oxa-2(4,2)-thiazola-1(5,3)-indola-6(1,3)-pyridazinacycloundecaphane-4-yl)-2-((R)-2,2-difluorocyclopropyl)acetamide]
NCI-H441 cells; [4]
  IC50: 2.25 nM
[1]; Homo sapiens, ASPC1, 3 h
  IC50: 2.28 nM
[2]; Homo sapiens, NCI-H441, 3 h
  IC50: 1.02 nM
[3]; [5]
  IC50: 3.82 nM

## CCn1c(-c2cc(C#CCN3CC(OC)C3)cnc2[C@H](C)OC)c2c3cc(ccc31)-c1csc(n1)C[C@H](NC(=O)[C@H]1[C@H](C)[C@@H]1C)C(=O)N1CCC[C@H](N1)C(=O)OCC(C)(C)C2 (atropisomer, axis not shown; (Ra)) [Compound Z945, (1r,2R,3S)—N-((6^3S,4S,Z)-1^1-ethyl-1^2-(5-(3-(3-methoxyazetidin-1-yl)prop-1-yn-1-yl)-(Ra)-2-((S)-1-methoxyethyl)pyridin-3-yl)-10,10-dimethyl-5,7-dioxo-6^1,6^2,6^3,6^4,6^5,6^6-hexahydro-1^1H-8-oxa-2(4,2)-thiazola-1(5,3)-indola-6(1,3)-pyridazinacycloundecaphane-4-yl)-2,3-dimethylcyclopropane-1-carboxamide]
NCI-H441 cells; [4]
  IC50: 0.23 nM
[1]; Homo sapiens, ASPC1, 3 h
  IC50: 0.28 nM
[2]; Homo sapiens, NCI-H441, 3 h
  IC50: 0.18 nM
[3]; [5]
  IC50: 0.23 nM

## CCn1c(-c2cc(OCCN3CCS(=O)(=O)CC3)cnc2[C@H](C)OC)c2c3cc(ccc31)-c1csc(n1)C[C@H](NC(=O)[C@H]1C[C@@H]1C)C(=O)N1CCC[C@H](N1)C(=O)OCC(C)(C)C2 (atropisomer, axis not shown; (Ra)) [Compound Z605]
NCI-H441 cells; [6]
  IC50: 0.26 nM
[1]
  IC50: 0.6 nM
[2]
  IC50: 0.3 nM
[3]; [6]
  IC50: 0.5 nM

## CCn1c(-c2cc(OCC3(CN4CCCOCC4)CC3)cnc2[C@H](C)OC)c2c3cc(ccc31)-c1csc(n1)C[C@H](NC(=O)[C@H]1[C@H](C)[C@@H]1C)C(=O)N1CCC[C@H](N1)C(=O)OCC1(CC1)C2 (atropisomer, axis not shown; (Ra)) [Compound Z498]
NCI-H441 cells; [4]
  IC50: 5.58 nM
[1]; Homo sapiens, ASPC1, 3 h
  IC50: 10.9 nM
[2]; Homo sapiens, NCI-H441, 3 h
  IC50: 4.06 nM
[3]; [5]
  IC50: 8.99 nM

## CCn1c(-c2cc(N3CCN(C)CC3)cnc2[C@H](C)OC)c2c3cc(ccc31)-c1csc(n1)C[C@H](Nc1nnc3cc(C)ccn13)C(=O)N1CCC[C@H](N1)C(=O)OCC(C)(C)C2 (atropisomer, axis not shown; (Ra)) [Compound Z653, (6^3S,4S,Z)-1^1-ethyl-(Ra)-1^2-(2-((S)-1-methoxyethyl)-5-(4-methylpiperazin-1-yl)pyridin-3-yl)-10,10-dimethyl-4-((7-methyl-[1,2,4]triazolo[4,3-a]pyridin-3-yl)amino)-6^1,6^2,6^3,6^4,6^5,6^6-hexahydro-1^1H-8-oxa-2(4,2)-thiazola-1(5,3)-indola-6(1,3)-pyridazinacycloundecaphane-5,7-dione]
NCI-H441 cells; [4]
  IC50: 4.06 nM
[1]; Homo sapiens, ASPC1, 3 h
  IC50: 13.4 nM
[2]; Homo sapiens, NCI-H441, 3 h
  IC50: 4.55 nM
[3]; [5]
  IC50: 21.1 nM

## CCn1c(-c2cc(C#C[C@H]3CCCN3C)cnc2[C@H](C)OC)c2c3cc(ccc31)-c1csc(n1)C[C@H](NC(=O)[C@H]1[C@H](C)[C@@H]1C)C(=O)N1CCC[C@H](N1)C(=O)OCC(C)(C)C2 (atropisomer, axis not shown; (Ra)) [Compound Z599, (1r,2S,3R)—N-((6^3S,4S,Z)—(Ra)-1^2-(5-(((R)-1-methylpyrrolidin-2-yl)ethynyl)-2-((S)-1-methoxyethyl)pyridin-3-yl)-1^1-ethyl-10,10-dimethyl-5,7-dioxo-6^1,6^2,6^3,6^4,6^5,6^6-hexahydro-1^1H-8-oxa-2(4,2)-thiazola-1(5,3)-indola-6(1,3)-pyridazinacycloundecaphane-4-yl)-2,3-dimethylcyclopropane-1-carboxamide]
NCI-H441 cells; [4]
  IC50: 1.17 nM
[1]; Homo sapiens, ASPC1, 3 h
  IC50: 1.05 nM
[2]; Homo sapiens, NCI-H441, 3 h
  IC50: 0.7 nM
[3]; [5]
  IC50: 2.15 nM

## CCn1c(-c2cc(N3CCN(C)CC3)cnc2[C@H](C)OC)c2c3cc(ccc31)-c1csc(n1)C[C@H](Nc1nnc3cc(OC)ccn13)C(=O)N1CCC[C@H](N1)C(=O)OCC(C)(C)C2 (atropisomer, axis not shown; (Ra)) [Compound Z777, N-((6^3S,4S,Z)-1^1-ethyl-(Ra)-1^2(2-((S)-1-methoxyethyl)-5-(4-methylpiperazin-1-yl)pyridin-3-yl)-10,10-dimethyl-5,7-dioxo-6^1,6^2,6^3,6^4,6^5,6^6-hexahydro-1^1H-8-oxa-2(4,2)-thiazola-1(5,3)-indola-6(1,3)-pyridazinacycloundecaphane-4-yl)-4-(7-methoxy-[1,2,4]triazolo[4,3-a]pyridin-3-yl)amine]
NCI-H441 cells; [6]
  IC50: 18.2 nM
[1]
  IC50: 61.9 nM
[2]
  IC50: 22.2 nM
[3]; [6]
  IC50: 87.9 nM

## CCn1c(-c2cc(N(C)CC3COCCN3C)cnc2[C@H](C)OC)c2c3cc(ccc31)-c1csc(n1)C[C@H](NC(=O)[C@H]1[C@H](C)[C@@H]1C)C(=O)N1CCC[C@H](N1)C(=O)OCC(C)(C)C2 (stereo partly drawn) [Compound Z76, (1r,2R,3S)—N-((6^3S,4S,Z)-1^1-ethyl-1^2-(2-((S)-1-methoxyethyl)-5-(methyl((4-methylmorpholin-3-yl)methyl)amino)pyridin-3-yl)-10,10-dimethyl-5,7-dioxo-6^1,6^2,6^3,6^4,6^5,6^6-hexahydro-11H-8-oxa-2(4,2)-thiazola-1(5,3)-indola-6(1,3)-pyridazinacycloundecaphane-4-yl)-2,3-dimethylcyclopropane-1-carboxamide]
NCI-H441 cells; [4]
  IC50: 29.9 nM
[1]; Homo sapiens, ASPC1, 3 h
  IC50: 19.2 nM
[2]; Homo sapiens, NCI-H441, 3 h
  IC50: 19 nM
[3]; [5]
  IC50: 30.3 nM

## CCn1c(-c2cc(OCCN3CCP(C)(=O)CC3)cnc2[C@H](C)OC)c2c3cc(ccc31)-c1csc(n1)C[C@H](NC(=O)[C@H]1[C@H](C)[C@@H]1C)C(=O)N1CCC[C@H](N1)C(=O)OCC(C)(C)C2 (single isomer, unassigned) [Compound Z780]
NCI-H441 cells; [4]
  IC50: 1.58 nM
[1]; Homo sapiens, ASPC1, 3 h
  IC50: 3.35 nM
[2]; Homo sapiens, NCI-H441, 3 h
  IC50: 1.56 nM
[3]; [5]
  IC50: 4.51 nM

## CCn1c(-c2cc(C#CC(C)(C)N3CCCOCC3)cnc2[C@H](C)OC)c2c3cc(ccc31)-c1csc(n1)C[C@H](NC(=O)[C@H]1[C@H](C)[C@@H]1C)C(=O)N1CCC[C@H](N1)C(=O)OCC(C)(C)C2 (atropisomer, axis not shown; (Ra)) [Compound Z625, (1r,2R,3S)—N-((6S,4S,Z)-1^1-ethyl-(Ra)-1^2-(2-((S)-1-methoxyethyl)-5-(3-(1,4-oxazepan-4-yl)-3-methylbut-1-yn-1-yl)pyridin-3-yl)-10,10-dimethyl-5,7-dioxo-6^1,6^2,6^3,6^4,6^5,6^6hexahydro-1^1H-8-oxa-2(4,2)-thiazola-1(5,3)-indola-6(1,3)-pyridazinacycloundecaphane-4-yl)-2,3-dimethylcyclopropane-1-carboxamide]
NCI-H441 cells; [4]
  IC50: 0.24 nM
[1]; Homo sapiens, ASPC1, 3 h
  IC50: 0.33 nM
[2]; Homo sapiens, NCI-H441, 3 h
  IC50: 0.2 nM
[3]; [5]
  IC50: 0.36 nM

## CCn1c(-c2cc(OCC3(N4CCS(=O)(=O)CC4)CC3)cnc2[C@H](C)OC)c2c3cc(ccc31)-c1csc(n1)C[C@H](NC(=O)[C@H]1[C@H](C)[C@@H]1C)C(=O)N1CCC[C@H](N1)C(=O)OCC(C)(C)C2 [Compound Z449, (1r,2R,3S)—N-((6^3S,4S,Z)-1^2-(5-((1-(1,1-dioxidothiomorpholino)cyclopropyl)methoxy)-2-((S)-1-methoxyethyl)pyridin-3-yl)-1^1-ethyl-10,10-dimethyl-5,7-dioxo-6^1,6^2,6^3,6^4,6^5,6^6-hexahydro-1^1-hydrogen-8-oxa-2(4,2)-thiazola-1(5,3)-indola-6(1,3)-pyridazinacycloundecaphane-4-yl)-2,3-dimethylcyclopropane-1-carboxamide]
NCI-H441 cells; [6]
  IC50: 0.34 nM
[1]
  IC50: 0.21 nM
[2]
  IC50: 0.33 nM
[3]; [6]
  IC50: 0.45 nM

## CO[C@@H](C)c1ncc(OCCN2CCOC3(CC3)C2)cc1-c1c2c3cc(ccc3n1CC(F)(F)F)-c1csc(n1)C[C@H](NC(=O)[C@H]1[C@H](C)[C@@H]1C)C(=O)N1CCC[C@H](N1)C(=O)OCC1(CC1)C2 [Compound Z350, (1r,2R,3S)—N-((3′S,4′S,Z)-2′-(5-(2-(4-oxa-7-azaspiro[2.5]octan-7-yl)ethoxy)-2-((S)-1-methoxyethyl)pyridin-3-yl)-5′,7′-dioxo-1′-(2,2,2-trifluoroethyl)spiro[cyclopropane-1,10′-8-oxa-2(4,2)-thiazola-1(5,3)-indola-6(1,3)-pyridazinacycloundecaphan]-4-yl)-2,3-dimethylcyclopropane-1-carboxamide]
NCI-H441 cells; [6]
  IC50: 19.7 nM
[1]; Homo sapiens, ASPC1, 3 h
  IC50: 16.3 nM
[2]
  IC50: 9.1 nM
[3]; [6]
  IC50: 53.4 nM
